Laboratory results taken from PubChem BioAssay (NCI).
Where “and” joins values, the source holds several entries; their conditions need not be identical. Equal entries are not always repeated.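 Briefly, cells in 96-well plates were exposed to five compound concentrations for 48 h, and endpoints were estimated by linear interpolation. Abbreviation: GI50, concentration required for 50% inhibition of growth. The concentration for full growth arrest is given as TGI.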

How the values were obtained:
Test in all cases: inhibition of tumour cell growth, NCI panel, 48 h
HS 578T breast = tested on: HS 578T breast
EKVX NSCLC = tested on: EKVX NSCLC
LOX IMVI melanoma = tested on: LOX IMVI melanoma
UO-31 renal = tested on: UO-31 renal
MDA-MB-231 breast = tested on: MDA-MB-231 breast
SK-MEL-2 melanoma = tested on: SK-MEL-2 melanoma
HOP-92 NSCLC = tested on: HOP-92 NSCLC
HCT-15 colon = tested on: HCT-15 colon
NCI-H226 lung = tested on: NCI-H226 lung
OVCAR-8 ovarian = tested on: OVCAR-8 ovarian

SMILES	GI50 (HS 578T breast)	TGI (HS 578T breast)	GI50 (EKVX NSCLC)	TGI (EKVX NSCLC)	GI50 (LOX IMVI melanoma)	TGI (LOX IMVI melanoma)	GI50 (UO-31 renal)	TGI (UO-31 renal)	GI50 (MDA-MB-231 breast)	TGI (MDA-MB-231 breast)	GI50 (SK-MEL-2 melanoma)	TGI (SK-MEL-2 melanoma)	GI50 (HOP-92 NSCLC)	TGI (HOP-92 NSCLC)	GI50 (HCT-15 colon)	TGI (HCT-15 colon)	GI50 (NCI-H226 lung)	TGI (NCI-H226 lung)	GI50 (OVCAR-8 ovarian)	TGI (OVCAR-8 ovarian)
Cc1ccc(NC2=CC(=O)C(=O)c3ccccc32)c(C)c1	2.35 µM	7.99 µM	10.3 µM	24.3 µM	1.28 µM	4.46 µM	2.19 µM	14.5 µM	3.03 µM	19.4 µM	2.29 µM	6.4 µM	13.3 µM	42.3 µM	2.74 µM	17.1 µM	2.85 µM	12.2 µM	3.32 µM	17 µM
Cc1ccc(O)cc1Nc1ccnc2cc(-c3ccccn3)ccc12	2.45 µM	9.03 µM	3.61 µM	17.3 µM	2.26 µM	5.71 µM	0.246 µM	3.77 µM	1.25 µM	5.6 µM	3.86 µM	8.03 µM	0.292 µM	3.02 µM	2.44 µM	6.79 µM	3.88 µM	11.9 µM	3.61 µM	9.28 µM
N=C(N)c1ccc(OCCCCCOc2ccc(C(=N)N)cc2)cc1	7.64 µM	32.2 µM and 33 µM and 38.5 µM	8.89 µM	> 50 µM and 45.5 µM and 72.6 µM	8.47 µM	28.8 µM and 37.8 µM and 36.4 µM		> 100 µM	8.69 µM	> 50 µM and 44.4 µM	7.11 µM	16.9 µM and 47.1 µM and 22.4 µM	1.89 µM	21.5 µM and > 100 µM	7.57 µM	> 100 µM	5.24 µM and 6.96 µM and 14.2 µM	> 50 µM and 30.2 µM and 58.8 µM	2.05 µM	12.9 µM and 22.5 µM and 86.6 µM
Cc1cn2c(/C=C3/C(=O)Nc4ccc(C(=O)O)cc43)c(C)nc2s1	> 100 µM	> 100 µM	> 100 µM	> 100 µM	> 100 µM	> 100 µM	> 100 µM	> 100 µM	> 100 µM	> 100 µM	> 100 µM	> 100 µM	> 100 µM	> 100 µM	> 100 µM	> 100 µM	> 100 µM	> 100 µM	> 100 µM	> 100 µM
Oc1c(I)cc(Cl)c2cccnc12	7.78 µM and 8.12 µM	> 100 µM and 57.7 µM	2.89 µM and 25.4 µM	18 µM and 57.9 µM	2.66 µM and 4.03 µM	39.4 µM and 24.2 µM	2.35 µM and 22.1 µM	11.5 µM and 52.9 µM	3.54 µM and 2.7 µM	35.2 µM and 12.8 µM	11 µM and 14.7 µM	> 100 µM and 41.3 µM		17.9 µM and 50.3 µM	5.48 µM and 3.82 µM	> 100 µM and 38.5 µM	3.02 µM and 2.66 µM	20 µM and 8.8 µM	3.96 µM and 27.2 µM	> 100 µM and 99.3 µM
O=C(CN(/C=C/C(=O)C(F)(F)F)c1ccccc1)c1ccc(F)cc1	2.57 µM	8.33 µM	49.9 µM	> 100 µM	15.5 µM	37.6 µM	33.8 µM	> 100 µM	17.7 µM	42.1 µM	26.3 µM	70.1 µM	24.8 µM	90.4 µM	25.4 µM	> 100 µM	19.6 µM	47.8 µM	47.4 µM	> 100 µM
Cc1cc2c(cc1C)[n+](=O)c(C(=O)/C=C/c1ccccc1[N+](=O)[O-])c(C)n2[O-]		> 77.2 µM		99.1 µM		> 100 µM		> 100 µM		> 100 µM		55.2 µM		67.4 µM		> 100 µM		> 100 µM		> 100 µM
C=CC[PH+](c1ccccc1)c1ccccc1.C=CC[PH+](c1ccccc1)c1ccccc1.[Pt+2].[S-]c1ncccn1.[S-]c1ncccn1	23 µM	> 100 µM	26.9 µM	> 100 µM	2.18 µM	5.91 µM	3.75 µM	18 µM	5.68 µM	52.8 µM	47.4 µM	> 100 µM	2.7 µM	19.7 µM	2.94 µM	10.4 µM	16.6 µM	39.9 µM	4.44 µM	> 100 µM
COc1cc2c3c(n(CCCN4CCSCC4)c(=O)c2cc1OC)-c1cc2c(cc1C3=O)OCO2	71.7 µM	> 100 µM	> 100 µM	> 100 µM	> 100 µM	> 100 µM	> 100 µM	> 100 µM	25.2 µM	89.9 µM	16.8 µM	36.4 µM	19.4 µM	46.3 µM	> 100 µM	> 100 µM	59.9 µM	> 100 µM	> 100 µM	> 100 µM
Cc1ccccc1CNc1c2ccccc2nc2ccccc12	2.34 µM	5.99 µM	2.43 µM	8.02 µM	1.49 µM	2.93 µM	1.33 µM	3.91 µM	1.7 µM	4.19 µM	2.01 µM	4.19 µM	0.834 µM	4.54 µM	1.8 µM	4.02 µM	2.24 µM	6.17 µM	2.63 µM	12.2 µM
O=C(Nc1ccc(Cl)c(C(F)(F)F)c1)C(=O)c1c(O)c2ccccc2oc1=O		> 100 µM		> 100 µM		> 100 µM		> 100 µM		> 100 µM		> 100 µM		> 100 µM		> 100 µM		> 100 µM		> 100 µM
CCc1ccc(C2=NN(c3ccc(S(C)(=O)=O)cc3)C(=O)CC2)cc1	0.977 µM	7.77 µM	4.15 µM	98.4 µM	2.93 µM	> 100 µM	4.89 µM	> 100 µM	3.32 µM	> 60.2 µM	1.24 µM	98.4 µM	1.86 µM	23.7 µM	1.38 µM	> 100 µM	14.6 µM	> 100 µM	2.87 µM	> 81.8 µM
O=C1C2C(C(=O)N1CC[Se][Se]CCN1C(=O)C3C(C1=O)[C@H]1C=C[C@@H]3C1)[C@H]1C=C[C@@H]2C1 (stereo partly drawn)	0.266 µM	1.16 µM	0.274 µM	0.969 µM	0.167 µM	0.327 µM	0.247 µM	0.964 µM	0.595 µM	5.48 µM	1.98 µM	5.78 µM	0.575 µM	2.29 µM	0.441 µM	2.33 µM	0.219 µM	0.495 µM	0.404 µM	2.28 µM
Cc1ccc(NC(=O)c2ccc(NC3=C(Cl)C(=O)N(Cc4ccccc4)C3=O)cc2)cc1Cl	10.7 µM	34.9 µM	26.4 µM	> 100 µM	3 µM	14 µM	1.41 µM	2.71 µM	1.35 µM	11.9 µM	12.5 µM	34.1 µM	1.65 µM	11.6 µM	2.25 µM	13.2 µM	8.69 µM	23.5 µM	9.96 µM	21.5 µM
Cc1n(Cc2ccc3ccccc3n2)cc[n+]1Cc1ccc2ccccc2c1	1.18 µM	9.72 µM	2.17 µM	21 µM	1.05 µM	3.77 µM	13.6 µM	36.1 µM	0.665 µM	4.08 µM	0.522 µM	2.99 µM	0.355 µM	3.06 µM	20.4 µM	> 75.9 µM	0.965 µM	8.36 µM	1.29 µM	11.2 µM
COc1cc(OC)c(/C=C/C(=O)c2c(N)cc(OC)cc2OC)c(OC)c1	2.42 µM	> 82 µM	2.25 µM	> 100 µM	0.537 µM	> 100 µM	1.36 µM	> 100 µM	1.35 µM	> 100 µM	0.528 µM	> 100 µM	17.6 µM	> 94.8 µM	0.369 µM	> 100 µM	11.2 µM	> 100 µM	0.712 µM	> 100 µM
CCN(CC)CCS(=O)(=O)CCNc1ccnc2cc(Cl)ccc12	4.07 µM	> 100 µM	4.31 µM	> 46.1 µM	0.982 µM	5.85 µM	0.682 µM	8.8 µM	3.1 µM	> 100 µM	2.35 µM	14.1 µM	0.619 µM	7.39 µM	2.33 µM	> 38.1 µM	4.61 µM	> 100 µM	2.54 µM	> 27.3 µM
CC(C)CCCC(C)[C@H]1CCC2[C@@H]3CCC4Cc5nc6c(nc5C[C@]4(C)C3CC[C@@]21C)CC1CC[C@@H]2C(CC[C@@]3(C)C2CC[C@@H]3O)[C@@]1(C)C6 (stereo partly drawn)		> 100 µM		> 100 µM		> 100 µM		> 100 µM		> 100 µM		> 100 µM		> 100 µM		> 100 µM		> 100 µM		> 100 µM
O=c1c2ccccc2n2cnc3ccc(NCCNCCO)c1c32		6.26 µM		8.49 µM		2.8 µM		11.6 µM		6.58 µM		8.8 µM		13.1 µM		13.7 µM		6.5 µM		5.02 µM
